{"source": "patent US8454857B2", "about": "“Polymerizable liquid crystal compounds, polymerizable liquid crystal compositions, liquid crystalline polymers and optically anisotropic materials” (Zeon Corporation, priority 2008, dated 2013)", "type_in_all_cases": "physicochemical", "key": {"[1]": {"assay": "Mutual solubility at 23° C. by naked eye observation when forming the cured film", "design": "key: A case where turbidity was not observed was evaluated as “Good”; a case where turbidity was observed was evaluated as “Bad”", "conditions": "naked eye observation of turbidity", "method": "100 parts of the polymerizable liquid crystal compound (1 to 3) was dissolved in 153 parts of cyclopentanone. After the addition of 3.3 parts of a photoinitiator (“Irgacure 379” manufactured by Ciba Specialty Chemicals Co., Ltd.), 6 parts of a polymerizable chiral compound (compound shown by the formula (X)), and 11.6 parts of a surfactant (“KH-40” manufactured by AGC Seimi Chemical Co., Ltd.; 1 wt % cyclopentanone solution), the components were homogenously dissolved to prepare a polymerizable liquid crystal composition solution.\nWhen forming the cured film of the compound, the mutual solubility of the compound at 23° C. was evaluated by naked eye observation. A case where turbidity was not observed was evaluated as “Good”, and a case where turbidity was observed was evaluated as “Bad”."}, "[2]": {"assay": "Measurement of optical anisotropy (value Δn) of cured polymer film", "conditions": "cured polymer film 4 μm, 546 nm, Δn=Re/d", "method": "100 parts of the polymerizable liquid crystal compound (1 to 3) was dissolved in 233 parts of cyclopentanone. 2.7 parts of a photoinitiator (“Irgacure 907” manufactured by Ciba Specialty Chemicals Co., Ltd.) was homogenously dissolved in the solution. The resulting solution was applied to a glass substrate provided with a rubbed polyimide alignment film using a bar coater (“SA-203” manufactured by Tester Sangyo Co., Ltd., Rod No. 4, shaft diameter: 12.7 mm). After drying the resulting film at 100° C. for 5 minutes on a hot plate, ultraviolet rays (1000 mJ/cm^2) were applied to the film from a mercury lamp to obtain a cured polymer film having a thickness of 4 μm.\nThe extinction position (θ) of the cured film was measured using an optical microscope (“ECLIPSE E600POL (transmission/reflection type)” manufactured by Nikon Corporation, equipped with a sensitive tint plate, a λ/4 wave plate, a Sénarmont compensator, and a GIF filter (546 nm). The retardation (Re) was calculated by “Re=λ(546 nm)×θ/180”. The value Δn was calculated by “Δn=Re/d” (where, d is the thickness of the liquid crystal layer). The calculation results are shown in Table 1."}, "[3]": {"assay": "Measurement of phase transition temperature (polarizing optical microscope, heated 30° C. to 300° C. and cooled)", "method": "10 mg of the polymerizable liquid crystal compound (the polymerizable liquid crystal compounds 1 and 2 obtained in Examples 1 and 2, and a polymerizable liquid crystal compound shown by the following formula (3) (“LC242” manufactured by BASF) (Comparative Example 1) (hereinafter referred to as “polymerizable liquid crystal compound 3”)) was weighed, and placed between two glass substrates provided with a rubbed polyimide alignment film.\nThe substrates were heated from 30° C. to 300° C. on a hot plate, and then cooled to 30° C. A change in structure during a change in temperature was observed using a polarizing optical microscope (“ECLIPSE LV100POL” manufactured by Nikon Corporation) to determine the phase transition temperature.\nIn Table 1, “C” indicates “Crystal”, “N” indicates “Nematic”, and “I” indicates “Isotropic”."}, "[4]": {"assay": "Solubility in cyclopentanone at 60° C., 40 wt % solution", "design": "key: a case where the compound was dissolved in cyclopentanone is indicated by “Good”; a case where the compound was not dissolved in cyclopentanone is indicated by “Bad”", "conditions": "compound concentration 40 wt %", "method": "The solubility of the compound at 60° C. was evaluated when preparing a solution having a compound concentration of 40 wt %. In Table 1, a case where the compound was dissolved in cyclopentanone is indicated by “Good”, and a case where the compound was not dissolved in cyclopentanone is indicated by “Bad”."}}}
{"smiles": "C=CC(=O)OCCCCOC(=O)Oc1ccc(C(=O)Oc2ccc(OC(=O)c3ccc(OC(=O)OCCCCOC(=O)C=C)cc3)c(C)c2)cc1", "note": "[Polymerizable liquid crystal compound 3]", "values": [{"measurement": "Mutual solubility", "setting": "[1]", "result": "Good"}, {"measurement": "Δn", "setting": "[2]", "result": 0.142}, {"measurement": "Liquid crystallinity temperature range", "setting": "[3]; heated from 30° C. to 300° C., then cooled to 30° C., between glass substrates with rubbed polyimide alignment film", "result": 63, "unit": "°C"}, {"measurement": "liquid crystallinity temperature range (in words)", "setting": "[3]; summary of Table 1", "result": "liquid crystallinity within a narrow temperature range"}, {"measurement": "Solubility", "setting": "[4]", "result": "Good"}]}
